Reference: the supplement of paper PMC6045584
± gives the standard deviation of the averaged measurements.

Tests used:
[1] = compound: COc1cc2c(cc1O)CC[C@@H]1[C@@H]2CC[C@]2(C)[C@@H](O)CC[C@@H]12 [2-METHOXYESTRADIOL]; experiment: surviving fraction relative to DMSO-only wells; higher = less growth inhibition; conditions: exposure time: 5 days
Procedure, shortened: (§1)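 Inhibitors were tested at 0.5, 1, 5, 10, 50, 100, 500 and 1000 nM, applied continuously for five days beginning 24 hours after log-phase tumour cells were seeded at 250–500 per well in 384-well plates. CellTiter-Glo luminescence served as the viability measure, expressed as surviving fraction against the median of DMSO-only wells. Each line, screened three times, was kept only with replicate Pearson r >0.7 and median Z' >0.3.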

[2] = compound: COc1ccc(C2=N[C@@H](c3ccc(Cl)cc3)[C@@H](c3ccc(Cl)cc3)N2C(=O)N2CCNC(=O)C2)c(OC(C)C)c1 [NUTLIN3]; experiment: as above; conditions: exposure time: 5 days
Procedure, shortened: as §1

| Test System | surviving fraction ([1]; 0.5 nM) | surviving fraction ([1]; 1 nM) | surviving fraction ([1]; 5 nM) | surviving fraction ([1]; 10 nM) | surviving fraction ([1]; 50 nM) | surviving fraction ([1]; 100 nM) | surviving fraction ([1]; 500 nM) | surviving fraction ([1]; 1000 nM) | surviving fraction ([2]; 0.5 nM) | surviving fraction ([2]; 1 nM) | surviving fraction ([2]; 5 nM) | surviving fraction ([2]; 10 nM) | surviving fraction ([2]; 50 nM) | surviving fraction ([2]; 100 nM) | surviving fraction ([2]; 500 nM) | surviving fraction ([2]; 1000 nM) |
| --- | --- | --- | --- | --- | --- | --- | --- | --- | --- | --- | --- | --- | --- | --- | --- | --- |
| HCC1395 BREAST | 0.926 ± 0.081 | 1.15 ± 0.08 | 1.14 ± 0.035 | 1.25 ± 0.085 | 1.24 ± 0.027 | 1.22 ± 0.072 | 1.17 ± 0.083 | 0.907 ± 0.088 | 1.18 ± 0.046 | 1.14 ± 0.1 | 1.25 ± 0.022 | 1.12 ± 0.069 | 1.21 ± 0.06 | 1.09 ± 0.061 | 0.999 ± 0.094 | 1.13 ± 0.16 |
| HCC1806 BREAST | 0.946 ± 0.076 | 1.02 ± 0.052 | 1.03 ± 0.083 | 1.11 ± 0.052 | 1.06 ± 0.053 | 1.15 ± 0.079 | 1.06 ± 0.11 | 0.808 ± 0.036 | 1.07 ± 0.079 | 1.04 ± 0.1 | 1.07 ± 0.15 | 1.08 ± 0.13 | 1.07 ± 0.1 | 1.05 ± 0.17 | 1.05 ± 0.16 | 1.17 ± 0.2 |
| HCC1954 BREAST | 0.93 ± 0.027 | 1.09 ± 0.072 | 1.049 ± 0.0014 | 1.05 ± 0.12 | 0.845 ± 0.019 | 0.742 ± 0.1 | 0.716 ± 0.034 | 0.515 ± 0.029 | 1.17 ± 0.071 | 1.16 ± 0.08 | 1.11 ± 0.07 | 1.01 ± 0.36 | 1.22 ± 0.26 | 1.14 ± 0.064 | 1.15 ± 0.051 | 0.99 ± 0.036 |
| HCT15 LARGE INTESTINE | 0.947 ± 0.027 | 0.926 ± 0.028 | 0.959 ± 0.057 | 0.914 ± 0.04 | 1.01 ± 0.021 | 0.929 ± 0.1 | 0.0957 ± 0.014 | 0.0547 ± 0.0085 | 1.01 ± 0.038 | 1.01 ± 0.013 | 1.01 ± 0.018 | 0.992 ± 0.013 | 1.05 ± 0.034 | 1.07 ± 0.061 | 1.04 ± 0.056 | 1.01 ± 0.017 |
| HELA CERVIX | 0.982 ± 0.043 | 1 ± 0.031 | 0.985 ± 0.013 | 0.938 ± 0.04 | 1.06 ± 0.064 | 1.11 ± 0.077 | 0.593 ± 0.045 | 0.0965 ± 0.0045 | 1.01 ± 0.092 | 1 ± 0.039 | 1 ± 0.025 | 0.984 ± 0.043 | 1.06 ± 0.044 | 1.07 ± 0.041 | 1.08 ± 0.03 | 1.13 ± 0.039 |
| HOS BONE | 0.996 ± 0.013 | 0.992 ± 0.029 | 1.02 ± 0.02 | 1.004 ± 0.0095 | 1.04 ± 0.015 | 1.05 ± 0.025 | 0.96 ± 0.02 | 0.158 ± 0.011 | 1.011 ± 0.0078 | 1.03 ± 0.014 | 1.008 ± 0.01 | 0.994 ± 0.02 | 1.06 ± 0.02 | 1.05 ± 0.01 | 1.057 ± 0.0091 | 1.09 ± 0.021 |
| HOSMNG BONE | 0.97 ± 0.12 | 0.966 ± 0.034 | 0.957 ± 0.1 | 1 ± 0.046 | 1.05 ± 0.11 | 1.03 ± 0.084 | 0.652 ± 0.053 | 0.168 ± 0.011 | 1.04 ± 0.056 | 1.03 ± 0.033 | 0.979 ± 0.098 | 0.975 ± 0.076 | 1.09 ± 0.025 | 1.12 ± 0.013 | 1.12 ± 0.026 | 1.13 ± 0.023 |
| HSSYII SYNOVIAL | 0.901 ± 0.024 | 0.926 ± 0.01 | 0.923 ± 0.043 | 0.997 ± 0.046 | 0.915 ± 0.018 | 0.764 ± 0.013 | 0.139 ± 0.0043 | 0.0593 ± 0.0049 | 0.951 ± 0.02 | 0.904 ± 0.051 | 0.976 ± 0.041 | 0.9313 ± 0.0089 | 0.942 ± 0.053 | 0.91 ± 0.035 | 0.676 ± 0.058 | 0.43 ± 0.04 |
| HT1080 SOFT TISSUE | 1.01 ± 0.011 | 1.02 ± 0.018 | 1.05 ± 0.016 | 0.987 ± 0.058 | 1.01 ± 0.043 | 0.999 ± 0.033 | 0.756 ± 0.049 | 0.313 ± 0.028 | 1.02 ± 0.019 | 0.978 ± 0.031 | 0.998 ± 0.012 | 1.02 ± 0.018 | 0.9757 ± 0.0085 | 0.929 ± 0.01 | 0.797 ± 0.024 | 0.58 ± 0.046 |
| HU09 BONE | 1.02 ± 0.055 | 0.959 ± 0.03 | 1.02 ± 0.024 | 1.1 ± 0.1 | 1.12 ± 0.081 | 1.08 ± 0.095 | 0.512 ± 0.015 | 0.159 ± 0.029 | 1.03 ± 0.17 | 0.933 ± 0.1 | 1.02 ± 0.14 | 1.03 ± 0.059 | 1.04 ± 0.069 | 1.08 ± 0.11 | 1.04 ± 0.14 | 1.03 ± 0.085 |
| HUO3N1 BONE | 1.01 ± 0.012 | 0.994 ± 0.037 | 1.05 ± 0.05 | 1.03 ± 0.057 | 1.07 ± 0.022 | 1.02 ± 0.041 | 0.87 ± 0.059 | 0.537 ± 0.03 | 1.07 ± 0.046 | 0.988 ± 0.032 | 1.039 ± 0.0087 | 1 ± 0.034 | 1.09 ± 0.032 | 1.03 ± 0.032 | 1.01 ± 0.068 | 1.04 ± 0.033 |
| JIMT1 BREAST | 0.985 ± 0.032 | 1.04 ± 0.029 | 1.03 ± 0.023 | 1 ± 0.031 | 1.09 ± 0.013 | 1.05 ± 0.021 | 0.762 ± 0.053 | 0.403 ± 0.045 | 0.985 ± 0.011 | 0.976 ± 0.018 | 1.01 ± 0.037 | 0.9965 ± 0.0076 | 1.08 ± 0.037 | 1.06 ± 0.016 | 1.06 ± 0.043 | 1.04 ± 0.018 |
| JURKAT HAEMATOPOIETIC AND LYMPHOID TISSUE | 1.08 ± 0.021 | 1.08 ± 0.014 | 1.03 ± 0.005 | 1.02 ± 0.033 | 1.02 ± 0.032 | 0.993 ± 0.016 | 0.043 ± 0.001 | 0.042 ± 0.001 | 1.11 ± 0.031 | 1.1 ± 0.015 | 1.07 ± 0.015 | 1.06 ± 0.017 | 1.05 ± 0.078 | 1.03 ± 0.012 | 1.02 ± 0.022 | 1.03 ± 0.013 |
| KPD BONE | 0.992 ± 0.043 | 0.964 ± 0.04 | 1.02 ± 0.066 | 1.03 ± 0.014 | 1.08 ± 0.031 | 1.07 ± 0.024 | 0.784 ± 0.047 | 0.551 ± 0.026 | 0.968 ± 0.042 | 0.966 ± 0.049 | 1.05 ± 0.064 | 0.987 ± 0.023 | 1.03 ± 0.061 | 1.01 ± 0.098 | 1.01 ± 0.017 | 0.962 ± 0.075 |
| LM7 BONE | 0.969 ± 0.063 | 1.03 ± 0.016 | 1.06 ± 0.022 | 1.01 ± 0.056 | 1.12 ± 0.077 | 1.03 ± 0.13 | 0.5347 ± 0.0023 | 0.264 ± 0.024 | 0.99 ± 0.075 | 0.977 ± 0.082 | 1.05 ± 0.025 | 1.07 ± 0.14 | 0.987 ± 0.065 | 1.08 ± 0.046 | 1.03 ± 0.1 | 0.994 ± 0.05 |
| LNCAP PROSTATE | 1.01 ± 0.039 | 0.922 ± 0.039 | 0.975 ± 0.094 | 0.901 ± 0.092 | 0.884 ± 0.13 | 0.809 ± 0.091 | 0.681 ± 0.033 | 0.208 ± 0.0072 | 1.03 ± 0.034 | 1.01 ± 0.078 | 0.955 ± 0.065 | 1 ± 0.086 | 0.956 ± 0.073 | 0.803 ± 0.089 | 0.491 ± 0.12 | 0.289 ± 0.011 |
| MCF7 BREAST | 0.846 ± 0.015 | 0.837 ± 0.017 | 0.857 ± 0.0097 | 0.8506 ± 0.0053 | 0.903 ± 0.027 | 0.924 ± 0.083 | 0.943 ± 0.048 | 0.685 ± 0.086 | 0.881 ± 0.036 | 0.841 ± 0.038 | 0.819 ± 0.013 | 0.821 ± 0.038 | 0.939 ± 0.021 | 0.952 ± 0.051 | 0.865 ± 0.013 | 0.85 ± 0.039 |
| MDAMB134 BREAST | 0.832 ± 0.24 | 0.884 ± 0.12 | 0.777 ± 0.041 | 0.916 ± 0.18 | 0.755 ± 0.097 | 0.717 ± 0.12 | 0.56 ± 0.0085 | 0.619 ± 0.15 | 1.03 ± 0.011 | 0.923 ± 0.0071 | 1.013 ± 0.0085 | 0.84 ± 0.11 | 1.125 ± 0.0021 | 1.07 ± 0.032 | 1.021 ± 0.0042 | 0.896 ± 0.028 |
| MDAMB157 BREAST | 0.873 ± 0.086 | 0.947 ± 0.022 | 0.935 ± 0.05 | 0.983 ± 0.12 | 0.959 ± 0.012 | 0.932 ± 0.013 | 0.76 ± 0.055 | 0.31 ± 0.066 | 0.957 ± 0.071 | 0.961 ± 0.093 | 0.97 ± 0.11 | 0.913 ± 0.12 | 1.02 ± 0.075 | 1 ± 0.039 | 0.999 ± 0.051 | 1.04 ± 0.074 |
| MDAMB231 BREAST | 0.964 ± 0.0098 | 0.949 ± 0.011 | 0.9675 ± 0.0069 | 0.963 ± 0.018 | 0.983 ± 0.027 | 0.989 ± 0.027 | 0.545 ± 0.025 | 0.258 ± 0.012 | 0.97 ± 0.013 | 0.976 ± 0.028 | 1.01 ± 0.017 | 0.977 ± 0.019 | 1.06 ± 0.017 | 1.06 ± 0.02 | 1 ± 0.026 | 0.995 ± 0.022 |
| MDAMB361 BREAST | 0.843 ± 0.082 | 0.827 ± 0.11 | 0.865 ± 0.046 | 0.829 ± 0.11 | 0.788 ± 0.043 | 0.8 ± 0.083 | 0.666 ± 0.014 | 0.701 ± 0.081 | 0.854 ± 0.032 | 0.793 ± 0.036 | 0.809 ± 0.075 | 0.844 ± 0.097 | 0.887 ± 0.12 | 0.923 ± 0.063 | 0.907 ± 0.067 | 0.825 ± 0.025 |
